Assay results: US9469853B2, “MCPIP protection against osteoclast production” (University of Central Florida Research Foundation, Inc., priority 2005, dated 2016)

How the values were obtained:
Beclin-1, LC3, Atg7 = assay: Autophagy markers (Beclin-1, LC3 lipidation, Atg7) expression; assay type: cell-based, human; details: MCPIP-transfected BMCs
Experimental: (§1) BMCs were cultured in α-MEM supplemented with 10% FBS containing 30 ng/ml M-CSF, 100 U/ml penicillin, and 100 μg/ml streptomycin in 5% CO2 at 37° C. OC precursor cells were induced after 3-day culture as Ha et al. (2010). At this point, cells were treated with 50 ng/ml MCP-1, inhibitors, or gene transfection. For inhibitor treatment, CeO2 (10 μM), apocynin (100 μg/ml), TUDC (100 μM), 3′-MA (50 μM), and LY294002 (20 μM) were added 6 h before gene transfection.
(§2) OC precursor cells were transfected with 1 μg GFP or MCPIP-GFP eukaryotic expression plasmids for gene-gain-function assay by using Fugene 6. For gene silencing, chemically synthesized siRNA duplex (100 nM) targeting MCPIP, IRE-1, or Beclin-1 was transfected into OC precursor cells using DharmaFECT (Dharmacon) for 24 h prior to transfection with MCPIP-GFP or GFP plasmid. A scrambled siRNA was used as a negative control. For knockdown expression of p47^PHOX, specific antisense (AS) (5′-[…]-3′ (SEQ ID NO: 5)) and sense (5′-[…]-3′ (SEQ ID NO: 6)) oligonucleotides were designed and synthesized by phosphorothioate modification by Integrated DNA Technologies. The oligonucleotides were transfected into OC precursor cells using Lipofectamine 2000 for 24 h before MCPIP-GFP plasmid transfection.
(§3) Cells were centrifuged after wash with PBS for twice. Cell pellet was resuspended in 1 ml Trizol reagent and the total RNA was extracted with chloroform and isopropanol, purified on Qiagen Mini-Prep column, and treated with DNase. High Capacity cDNA Reverse Transcription kit (Applied Biosystems) was used for cDNA preparation from 1 μg total RNA. qRT-PCR was done in triplicate in an ABI PRISM 7900HT Sequence Detection System with 5% cDNA product, primers (Supplementary Table S1) at 125 nM, and Fast SYBR Green Master Mix (Applied Biosystems). Relative quantitation of PCR products was done by the 2^−ΔΔCT method, CT=cycles to threshold, and ^ΔΔCT=(target gene CT)−(β-actin reference gene CT). Final data were described as fold changes against control cells.
(§4) Sodium dodecyl sulfate-polyacrylamide gel electrophoresis (SDS-PAGE) and western blotting were performed as described elsewhere. Samples (30 μg of protein) were subjected to 12% SDS-PAGE for most of target protein and 18% SDS-PAGE for LC3-II and LC3, transferred onto PVDF membranes (Millipore), and assayed for MCPIP, p47^PHOX, TRAP, CTSK, GRP78, IRE-1, Beclin-1, LC3-II, and β-actin or Fas (loading control) protein expression by chemiluminescence detection (Pierce ECL kit) according to the manufacturer's instructions. The specific protein bands were quantified by densitometric analysis with GS-690 Image Densitometer (Bio-Rad).

GRP78 and IRE-1 = assay: ER stress markers GRP78 and IRE-1 expression; assay type: cell-based, human; details: for MCPIP-induced expression of GRP78: autophagy inhibition, MCPIP-transfected BMCs; for MCPIP-induced expression of GRP78 and IRE-1: pretreatment prior to MCPIP transfection, immunoblot; for expression of ER stress markers GRP78 and IRE-1: substance alone
Experimental: as §1, §2, §3, §4

[1] = system: TRAP and CTSK expression in BMCs; assay: Expression of OC markers TRAP and CTSK (immunoblot, real-time PCR); assay type: cell-based, human; details: for MCPIP-induced expression of TRAP and CTSK: MCPIP-transfected BMCs, inhibitors 6 h (CeO2 10 μM, apocynin 100 μg/ml, TUDC 100 μM, 3′-MA 50 μM, LY294002 20 μM) or siRNA/antisense 24 h before transfection; for expression of TRAP and CTSK: substance alone, no other inducer, protein and mRNA
Experimental: as §1, §2, §3, §4

MCPIP = MCPIP expression (immunoblot, real-time PCR); assay type: cell-based, human
Experimental: as §1
(§5) OC precursor cells were transfected with 1 μg GFP or MCPIP-GFP eukaryotic expression plasmids for gene-gain-function assay by using Fugene 6. For gene silencing, chemically synthesized siRNA duplex (100 nM) targeting MCPIP, IRE-1, or Beclin-1 was transfected into OC precursor cells using DharmaFECT (Dharmacon) for 24 h prior to transfection with MCPIP-GFP or GFP plasmid. A scrambled siRNA was used as a negative control. […]
(§6) Cells were centrifuged after wash with PBS for twice. […] Relative quantitation of PCR products was done by the 2^−ΔΔCT method, CT=cycles to threshold, and ^ΔΔCT=(target gene CT)−(β-actin reference gene CT). […]
(§7) Sodium dodecyl sulfate-polyacrylamide gel electrophoresis (SDS-PAGE) and western blotting were performed as described elsewhere. […] The specific protein bands were quantified by densitometric analysis with GS-690 Image Densitometer (Bio-Rad).

ROS production in BMCs = assay: ROS production (DHR123 oxidation); assay type: cell-based, human
Experimental: as §1
as §2, with “The oligonucleotides were transfected into OC precursor cells using Lipofectamine 2000 for 24 h before MCPIP-GFP plasmid transfection.” left out
Oxidant production in OC precursor cells was assessed by measuring the oxidation of intracellular DHR123 (Molecular Probes) as described previously (Younce et al., 2010). ROS production was expressed as folds compared with control cells expressing GFP alone.

p47PHOX = p47PHOX expression and membrane translocation (immunoblot); assay type: cell-based, human
Experimental: as §1
OC precursor cells were transfected with 1 μg GFP or MCPIP-GFP eukaryotic expression plasmids for gene-gain-function assay by using Fugene 6. […]
OC precursor cells were harvested, sonicated on ice in a buffer containing 100 mM KCl, 3 mM NaCl, 3.5 mM MgCl2, 10 mM HEPES, 1 mM EGTA, 10 μg/ml pepstatin, 10 μg/ml leupeptin, and 0.5 mM PMSF; lysates were centrifuged at 600 g for 10 min at 4° C. to remove nuclei and unbroken cells. […] Membranes were washed in the same buffer, quantified (Lemarie), and resuspended in Laemmli sample buffer, before western blot analysis.
as §7

[2] = system: human bone marrow mononuclear cells (BMCs); assay: TRAP staining, TRAP-positive OC precursor cell formation; assay type: cell-based; details: substance alone, 50 ng/ml MCP-1, human BMCs
Experimental: as §1, §5
Three days after MCP-1 treatment or 4 days after MCPIP transfection, cells were fixed for histological staining for TRAP as described previously (Kim et al., 2006a). […] On each coverslip, totally at least 500 cells were examined and the TRAP-positive cells were counted in 3-5 fields (20× objective), and the percentage of TRAP-positive cells was calculated.

[3] = system: αV integrin, β3 integrin, and MMP9; assay: Expression of OC functional markers αV integrin, β3 integrin, MMP9; assay type: cell-based, human; details: substance alone
Experimental: as §1, §5, §6, §7

[4] = pretreatment prior to MCPIP transfection

## Cn1cnc(N)c2ncnc1-2 [3′-MA, 3′-methyladenine]
Beclin-1, LC3, Atg7
  MCPIP-induced expression of Beclin-1: significantly inhibited
Beclin-1, LC3, Atg7; immunoblot
  lipidation of LC-3: inhibited
GRP78 and IRE-1
  MCPIP-induced expression of GRP78: no effect
[1]
  MCPIP-induced expression of TRAP and CTSK: significantly inhibited

## O=c1cc(N2CCOCC2)oc2c(-c3ccccc3)cccc12 [LY294002]
GRP78 and IRE-1
  MCPIP-induced expression of GRP78: no effect

## C[C@H](CCC(=O)NCCS(=O)(=O)O)[C@H]1CC[C@H]2[C@@H]3[C@@H](O)C[C@@H]4C[C@H](O)CC[C@]4(C)[C@H]3CC[C@]12C [TUDC, tauroursodeoxycholate]
Beclin-1, LC3, Atg7
  MCPIP-induced expression of Beclin-1: inhibited significantly
GRP78 and IRE-1
  MCPIP-induced expression of GRP78 and IRE-1: inhibits
MCPIP; MCPIP-transfected BMCs
  expression of MCPIP after MCPIP transfection: did not affect
[1]
  MCPIP-induced expression of TRAP and CTSK: significantly inhibited

## COc1cc(C(C)=O)ccc1O [apocynin]
Beclin-1, LC3, Atg7
  MCPIP-induced expression of Beclin-1: inhibited significantly
GRP78 and IRE-1
  MCPIP-induced expression of GRP78 and IRE-1: attenuated
ROS production in BMCs; [4]
  MCPIP-induced ROS production: suppressed
p47PHOX; [4]
  MCPIP-induced expression and membrane translocation of p47PHOX: inhibited
[1]
  MCPIP-induced expression of TRAP and CTSK: suppressed

## C/C=C(/C)C(=O)O[C@H]1C(C)=C2[C@H]([C@@H]1OC(=O)CCCCCCC)[C@@](C)(OC(C)=O)C[C@H](OC(=O)CCC)[C@@]1(O)[C@H]2OC(=O)[C@@]1(C)O [thapsigargin]
GRP78 and IRE-1
  expression of ER stress markers GRP78 and IRE-1: induced
[1]
  expression of TRAP and CTSK: induced

## MCP-1: human MCP-1, a CC chemokine, purchased from Invitrogen
[2]
  TRAP-positive OC precursor cell formation: induced
[3]
  expression of αV integrin, β3 integrin, and MMP9: did not affect
GRP78 and IRE-1
  expression of ER stress markers GRP78 and IRE-1: induced
ROS production in BMCs; substance alone, DHR123 staining
  ROS generation: remarkably increased
MCPIP; substance alone, 50 ng/ml MCP-1
  MCPIP protein and mRNA levels: induced up-regulation
p47PHOX; substance alone
  expression of p47PHOX and its translocation from the cytoplasm into the membrane: increased
[1]
  expression of TRAP and CTSK: induced

## tunicamycin
GRP78 and IRE-1
  expression of ER stress markers GRP78 and IRE-1: induced
[1]
  expression of TRAP and CTSK: induced
